{"source": "patent US9744221B2", "about": "“Method and compositions for inhibiting or preventing adverse effects of oral antibiotics” (Synthetic Biologics, Inc., priority 2014, dated 2017)", "key": {"[1]": {"assay": "in vivo", "settings": "Yorkshire, pig, po, 20 mg/kg", "procedure": "A total of ten, two-month old Yorkshire piglets, approximately 20 kg each, were used for this study. All 10 animals were treated with oral amoxicillin twice a day for a total of 7 days, and one cohort of 5 animals was also treated with oral SYN-004 four times a day for a total of 9 days. The SYN-004 treatment was started the day before amoxicillin treatment and continued for a day after amoxicillin was stopped (FIG. 1).\nOn Study Day 0, Group 2 (Pigs 6-10) received one size 0 capsule of SYN-004; containing 75 mg of SYN-004, orally, four times a day at 7 am, 12 pm, 5 pm, and 10 pm for a total of 9 days. Pigs were fed 3 times a day, after SYN-004 dosing at 7 am, after SYN-004 dosing at 12 pm, and after SYN-004 dosing at 5 pm. Beginning on Study Day 1, Groups 1 and 2 (Pigs 1-10) received oral amoxicillin (fruit flavored oral suspension, Sandoz, NDC: 0781-6157-46, Lot #EY9130; 20 mg/kg) twice a day at 7 am and at 5 pm, for a total of 7 days. Animals received the amoxicillin first, followed by the SYN-004, then feeding.\nOn Day 2, after 4 amoxicillin doses, animals were bled and serum collected. Blood was collected aseptically from the vena cava from anesthetized animals. Three blood draws were performed, at 1 hr, 3 hrs, and 8 hrs after amoxicillin administration. A Telazol cocktail was administered intramuscularly at a minimal dose (1 mL or less per 50 lbs) to achieve light anesthesia/sedations. At each timepoint, approximately 9 mL of blood was collected into a serum separator vacutainer tube.\nAmoxicillin levels in the pig serum were quantified using a modification of a validated HPLC-based assay (Du et al., 2005). […] The assay was linear over a range of 1 to 30 ug/mL (R=0.999). Interday coefficients of variation for the low (1.5 ug/mL) and high (20 ug/mL) quality control samples were 3.9% and 4.9% respectively. Interday coefficients of variation were 3.8% and 2.8%, respectively. Peak height was used to integrate all the peaks. Sigma Plot was used to calculate drug concentrations and a −1 weighting factor was used. […]"}, "[2]": {"system": "intestinal microbiome", "assay": "Fecal microbiome whole genome shotgun sequencing in piglets given oral amoxicillin with or without SYN-004 (Example 1)", "assay_type": "in vivo, Yorkshire piglets", "settings": "Day -7 to Day 9, FIGS. 3 and 4", "procedure": "A study was performed using normal piglets to determine if SYN-004, when delivered orally with oral amoxicillin, functions to protect the microbiome from amoxicillin-induced dysbiosis.\nA total of ten, two-month old Yorkshire piglets, approximately 20 kg each, were used for this study. All 10 animals were treated with oral amoxicillin twice a day for a total of 7 days, and one cohort of 5 animals was also treated with oral SYN-004 four times a day for a total of 9 days.\nTwo pre-treatment fecal samples were obtained, the first 4 days after the animals arrived at the animal treatment facility (Day −7), and the second 7 days after arrival (Day −4). An additional 3 fecal samples were collected at Day 4, Day 8, and Day 9. […]\nDNA was isolated from the fecal samples and subjected to whole genome shotgun sequencing using an Illumina HiSeq system with a target of 20 million 100 bp single reads per sample. […]\nThe median similarity based on the relative bacterial strain abundance was calculated.\nA statistical analysis was performed to determine the probability that the microbiomes before and after antibiotic treatment remained the same or were different. The microbiome sequence data were analyzed using a parameterization of the Dirichlet-Multinomial distribution (La Rosa et al., 2012) to perform a Likelihood Ratio Test."}}}
{"smiles": "CC1(C)S[C@@H]2[C@H](NC(=O)[C@H](N)c3ccc(O)cc3)C(=O)N2[C@H]1C(=O)O", "note": "[amoxicillin, Amoxicillin]", "values": [{"measurement": "concentration at 1 h", "setting": "[1]", "result": "8900 ± 800", "unit": "ng/mL"}, {"measurement": "concentration at 3 h", "setting": "[1]", "result": "3900 ± 300", "unit": "ng/mL"}, {"measurement": "concentration at 8 h", "setting": "[1]", "result": "1500 ± 300", "unit": "ng/mL"}, {"measurement": "diversity of the microbiome (median percent similarity of strain relative abundance)", "setting": "[2]", "result": "continued to lose diversity throughout the duration of the study"}]}
